From ChEMBL document CHEMBL5375979, “Chemical, Biochemical, Cellular, and Physiological Characterization of Leucettinib-21, a Down Syndrome and Alzheimer's Disease Drug Candidate” (J Med Chem, 2023)

Columns and labels:
[1] = target: BMP-2-inducible protein kinase (Homo sapiens) (UniProt Q9NSY1); conditions: dose 10.0 µM
[2] = target: Dual specificity tyrosine-phosphorylation-regulated kinase 2 (Homo sapiens) (UniProt Q92630); conditions: dose 10.0 µM
[3] = target: Calcium/calmodulin-dependent protein kinase kinase 2 (Homo sapiens) (UniProt Q96RR4); conditions: dose 10.0 µM
Calcium/calmodulin-dependent protein kinase kinase 2 (Homo sapiens), sequence (Q96RR4 2-588 limits assumed): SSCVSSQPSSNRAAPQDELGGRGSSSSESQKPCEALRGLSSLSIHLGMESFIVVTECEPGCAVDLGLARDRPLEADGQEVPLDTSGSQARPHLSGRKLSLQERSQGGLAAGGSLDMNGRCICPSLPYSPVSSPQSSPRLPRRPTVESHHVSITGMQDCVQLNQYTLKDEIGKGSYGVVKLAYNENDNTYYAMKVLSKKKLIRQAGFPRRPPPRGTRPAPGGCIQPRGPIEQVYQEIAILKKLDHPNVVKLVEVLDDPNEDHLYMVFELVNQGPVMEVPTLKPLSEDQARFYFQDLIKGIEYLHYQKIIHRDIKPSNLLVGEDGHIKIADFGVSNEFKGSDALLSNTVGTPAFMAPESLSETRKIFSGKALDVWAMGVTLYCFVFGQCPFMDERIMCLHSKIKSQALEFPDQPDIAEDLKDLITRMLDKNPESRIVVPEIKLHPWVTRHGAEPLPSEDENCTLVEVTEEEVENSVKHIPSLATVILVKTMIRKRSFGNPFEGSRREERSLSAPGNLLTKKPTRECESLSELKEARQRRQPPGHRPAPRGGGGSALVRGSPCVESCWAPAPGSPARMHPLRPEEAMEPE

[4] = target: AP2-associated protein kinase 1 (Homo sapiens, UniProt Q2M2I8); conditions: dose 10.0 µM
[5] = target: Glycogen synthase kinase-3 beta (Homo sapiens) (UniProt P49841); conditions: dose 10.0 µM
[6] = target: Cyclin-dependent kinase-like 3 (Homo sapiens, UniProt Q8IVW4)
Description: Inhibition of human CDKL3 assessed as remaining activity by eurofins-cerep kinase profiler analysis

[7] = target: Serine/threonine-protein kinase TAO1 (Homo sapiens, UniProt Q7L7X3)
Serine/threonine-protein kinase TAO1, sequence (Q7L7X3 whole entry): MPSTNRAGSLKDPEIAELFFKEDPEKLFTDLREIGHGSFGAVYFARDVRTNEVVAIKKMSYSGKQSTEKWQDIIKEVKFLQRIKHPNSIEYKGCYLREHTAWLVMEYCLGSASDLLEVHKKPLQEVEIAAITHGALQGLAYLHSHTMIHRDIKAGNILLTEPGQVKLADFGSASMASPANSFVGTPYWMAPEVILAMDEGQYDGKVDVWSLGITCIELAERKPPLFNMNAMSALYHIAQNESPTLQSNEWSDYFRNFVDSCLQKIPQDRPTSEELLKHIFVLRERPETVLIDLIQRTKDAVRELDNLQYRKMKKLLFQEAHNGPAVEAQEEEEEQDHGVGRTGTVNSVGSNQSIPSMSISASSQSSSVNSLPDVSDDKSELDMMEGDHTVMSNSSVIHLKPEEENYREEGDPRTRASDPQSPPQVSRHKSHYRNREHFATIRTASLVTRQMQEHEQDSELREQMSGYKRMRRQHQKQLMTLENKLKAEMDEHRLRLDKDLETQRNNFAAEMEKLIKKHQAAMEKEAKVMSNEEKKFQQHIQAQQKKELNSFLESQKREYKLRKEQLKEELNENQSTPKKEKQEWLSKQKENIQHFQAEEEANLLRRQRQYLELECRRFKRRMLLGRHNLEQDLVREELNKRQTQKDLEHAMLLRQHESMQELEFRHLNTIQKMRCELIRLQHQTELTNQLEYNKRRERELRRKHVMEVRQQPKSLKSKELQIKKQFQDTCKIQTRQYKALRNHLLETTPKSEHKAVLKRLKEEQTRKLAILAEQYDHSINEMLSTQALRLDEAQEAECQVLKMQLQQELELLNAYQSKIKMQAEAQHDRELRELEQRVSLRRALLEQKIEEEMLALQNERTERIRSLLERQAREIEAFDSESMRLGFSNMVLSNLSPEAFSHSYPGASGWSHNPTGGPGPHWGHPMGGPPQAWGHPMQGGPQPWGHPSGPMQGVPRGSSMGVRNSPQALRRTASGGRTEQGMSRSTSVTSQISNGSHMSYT
Description: Inhibition of human TAO1 assessed as remaining activity by eurofins-cerep kinase profiler analysis

[8] = target: Death-associated protein kinase 3 (Homo sapiens) (UniProt O43293); conditions: dose 10.0 µM
Death-associated protein kinase 3 (Homo sapiens), sequence (O43293 whole entry, looked up): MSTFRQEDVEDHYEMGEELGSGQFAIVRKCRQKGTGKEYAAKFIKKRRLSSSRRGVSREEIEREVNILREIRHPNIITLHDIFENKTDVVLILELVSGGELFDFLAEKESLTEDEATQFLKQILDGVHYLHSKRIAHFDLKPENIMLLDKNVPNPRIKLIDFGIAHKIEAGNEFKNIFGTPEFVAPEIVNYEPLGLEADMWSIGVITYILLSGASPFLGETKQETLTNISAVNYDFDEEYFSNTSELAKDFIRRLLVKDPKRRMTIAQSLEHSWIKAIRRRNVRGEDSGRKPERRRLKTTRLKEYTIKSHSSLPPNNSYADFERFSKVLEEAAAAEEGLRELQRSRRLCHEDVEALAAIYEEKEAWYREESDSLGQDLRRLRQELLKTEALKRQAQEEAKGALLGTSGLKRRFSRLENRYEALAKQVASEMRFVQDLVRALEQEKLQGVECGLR

[9] = target: Cyclin-dependent kinase-like 1 (Homo sapiens, UniProt Q00532)
Cyclin-dependent kinase-like 1, sequence (Q00532 whole entry): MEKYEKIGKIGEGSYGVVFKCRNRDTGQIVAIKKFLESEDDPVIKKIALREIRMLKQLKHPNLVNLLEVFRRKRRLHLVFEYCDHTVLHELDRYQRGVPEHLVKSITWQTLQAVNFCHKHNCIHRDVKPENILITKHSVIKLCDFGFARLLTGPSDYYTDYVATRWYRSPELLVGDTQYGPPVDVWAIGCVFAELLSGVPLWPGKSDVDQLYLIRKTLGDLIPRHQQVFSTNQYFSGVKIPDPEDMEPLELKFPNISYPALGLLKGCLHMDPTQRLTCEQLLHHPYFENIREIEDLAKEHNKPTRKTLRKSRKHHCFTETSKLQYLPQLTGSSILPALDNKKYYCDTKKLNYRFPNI
Description: Inhibition of human CDKL1 assessed as remaining activity by eurofins-cerep kinase profiler analysis

[10] = target: Dual specificity protein kinase CLK1 (Homo sapiens, UniProt P49759); conditions: dose 10.0 µM
[11] = target: Cyclin-G-associated kinase (Homo sapiens) (UniProt O14976); conditions: dose 10.0 µM
Cyclin-G-associated kinase (Homo sapiens), sequence (O14976 whole entry): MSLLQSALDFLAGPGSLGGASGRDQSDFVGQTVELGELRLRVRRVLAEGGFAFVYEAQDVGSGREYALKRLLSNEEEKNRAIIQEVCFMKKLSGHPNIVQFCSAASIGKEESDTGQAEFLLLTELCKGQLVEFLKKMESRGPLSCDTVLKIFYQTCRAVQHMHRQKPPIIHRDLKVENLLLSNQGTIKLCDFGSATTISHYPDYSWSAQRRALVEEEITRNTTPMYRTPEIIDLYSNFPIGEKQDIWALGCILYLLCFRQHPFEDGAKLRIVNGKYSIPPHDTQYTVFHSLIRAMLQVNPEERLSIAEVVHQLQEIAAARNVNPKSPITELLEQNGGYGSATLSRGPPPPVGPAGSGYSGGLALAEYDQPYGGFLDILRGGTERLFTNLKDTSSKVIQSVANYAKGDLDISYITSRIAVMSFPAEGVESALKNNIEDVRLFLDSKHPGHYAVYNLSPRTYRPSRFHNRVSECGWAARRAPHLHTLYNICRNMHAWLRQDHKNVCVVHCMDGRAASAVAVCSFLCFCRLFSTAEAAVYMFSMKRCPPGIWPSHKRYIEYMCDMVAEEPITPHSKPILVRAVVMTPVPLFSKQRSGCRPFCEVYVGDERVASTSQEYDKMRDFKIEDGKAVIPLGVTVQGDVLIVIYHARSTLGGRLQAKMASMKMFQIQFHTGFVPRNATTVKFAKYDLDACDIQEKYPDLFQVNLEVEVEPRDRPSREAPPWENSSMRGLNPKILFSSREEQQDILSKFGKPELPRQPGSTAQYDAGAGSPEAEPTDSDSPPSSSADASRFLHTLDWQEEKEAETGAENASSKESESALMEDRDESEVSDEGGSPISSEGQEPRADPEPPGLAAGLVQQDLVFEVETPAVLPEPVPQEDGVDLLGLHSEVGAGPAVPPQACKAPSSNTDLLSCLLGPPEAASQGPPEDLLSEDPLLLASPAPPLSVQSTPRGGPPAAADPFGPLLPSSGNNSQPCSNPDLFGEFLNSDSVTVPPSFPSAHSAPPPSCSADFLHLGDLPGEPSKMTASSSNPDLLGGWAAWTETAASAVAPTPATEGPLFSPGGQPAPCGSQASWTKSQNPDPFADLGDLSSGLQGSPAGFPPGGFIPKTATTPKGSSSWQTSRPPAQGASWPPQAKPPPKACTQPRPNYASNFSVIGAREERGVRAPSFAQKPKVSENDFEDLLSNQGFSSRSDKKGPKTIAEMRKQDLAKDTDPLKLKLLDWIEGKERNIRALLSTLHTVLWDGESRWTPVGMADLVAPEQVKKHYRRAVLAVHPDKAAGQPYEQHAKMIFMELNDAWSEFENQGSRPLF

[12] = target: Homeodomain-interacting protein kinase 1 (Homo sapiens, UniProt Q86Z02)
Homeodomain-interacting protein kinase 1, sequence (Q86Z02 whole entry): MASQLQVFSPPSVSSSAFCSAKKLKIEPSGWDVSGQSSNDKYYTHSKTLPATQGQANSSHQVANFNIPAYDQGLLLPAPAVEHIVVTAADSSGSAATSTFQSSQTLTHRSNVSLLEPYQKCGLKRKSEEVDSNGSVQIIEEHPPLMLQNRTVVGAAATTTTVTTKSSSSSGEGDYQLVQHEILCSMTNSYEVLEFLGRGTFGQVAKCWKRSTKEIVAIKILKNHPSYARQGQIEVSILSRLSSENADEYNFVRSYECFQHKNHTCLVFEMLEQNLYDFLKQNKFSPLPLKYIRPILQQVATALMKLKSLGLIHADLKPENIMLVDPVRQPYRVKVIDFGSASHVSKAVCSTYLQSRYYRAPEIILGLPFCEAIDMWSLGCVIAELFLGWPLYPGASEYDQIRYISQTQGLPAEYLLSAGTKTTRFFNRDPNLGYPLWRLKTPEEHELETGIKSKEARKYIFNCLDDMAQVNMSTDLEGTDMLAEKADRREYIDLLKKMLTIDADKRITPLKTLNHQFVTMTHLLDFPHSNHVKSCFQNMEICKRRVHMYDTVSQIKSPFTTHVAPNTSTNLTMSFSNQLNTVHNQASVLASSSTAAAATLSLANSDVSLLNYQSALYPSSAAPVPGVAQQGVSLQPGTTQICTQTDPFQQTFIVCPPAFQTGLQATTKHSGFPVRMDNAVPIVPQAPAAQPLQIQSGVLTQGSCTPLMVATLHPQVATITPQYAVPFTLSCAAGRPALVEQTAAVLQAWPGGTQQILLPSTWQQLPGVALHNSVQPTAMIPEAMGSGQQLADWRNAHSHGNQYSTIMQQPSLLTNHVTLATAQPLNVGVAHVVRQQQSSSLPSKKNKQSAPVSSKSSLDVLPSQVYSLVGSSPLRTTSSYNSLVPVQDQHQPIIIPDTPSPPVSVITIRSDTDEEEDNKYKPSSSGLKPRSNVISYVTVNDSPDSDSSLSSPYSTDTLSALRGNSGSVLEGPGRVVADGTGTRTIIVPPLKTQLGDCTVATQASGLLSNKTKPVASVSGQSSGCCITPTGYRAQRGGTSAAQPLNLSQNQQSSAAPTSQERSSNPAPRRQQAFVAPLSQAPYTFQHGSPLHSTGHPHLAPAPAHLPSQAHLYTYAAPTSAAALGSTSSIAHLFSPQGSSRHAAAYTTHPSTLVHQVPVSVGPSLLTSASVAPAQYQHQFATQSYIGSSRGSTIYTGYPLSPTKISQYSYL
Description: Inhibition of human HIPK1 assessed as remaining activity by eurofins-cerep kinase profiler analysis

- ΔTm [1]: 4 °C
- ΔTm [2]: 1.7 °C
- ΔTm [3]: -1.2 °C
- ΔTm [4]: 6 °C
- ΔTm [5]: 2.1 °C
- IC50 [6]: > 1 µM
- IC50 [7]: > 10 µM
- IC50 [9]: > 1 µM
- ΔTm [10]: 3 °C
- ΔTm [11]: 3.5 °C
- IC50 [12]: > 10 µM
SMILES: COC[C@@H](CC(C)C)NC1=N/C(=C\c2ccc3scnc3c2)C(=O)N1
- ΔTm [8]: 1.2 °C
